Results published in publication PMC7360964, “Auto‐inhibition of Mif2/CENP‐C ensures centromere‐dependent kinetochore assembly in budding yeast” (The EMBO Journal, 2020).

B1: Mif2‐ΔsigAT: Mif2 variant that lacks signature motif and AT-hook (protein)
chain: MDYMKLGLKSRKTGIDVKQDIPKDEYSMENIDDFFKDDETSLISMRRKSRRKSSLFLPSTLNGDTKNVLPPFLQSYKSQDDEVVQSPSGKGDGSRRSSLLSHQSNFLSPANDFEPIEEEPEQEENDIRGNDFATPITQKLSKPTYKRKYSTRYSLDTSESPSVRLTPDRITNKNVYSDVPDLVADEDDDDRVNTSLNTSDNALLEDELEDDGFIPESEEDGDYIESDSSLDSGSDSASDSDGDNTYQEVEEEAEVNTNDNEDDYIRRQASDVVRTDSIIDRNGAKENLIPEDPNEDIIERIESGGIENGEWLKHGILEANVKISDTKEETKDEIIAFAPNLSQTEQVKDTKDENFALEIMFDKHKEYFASGILKLPAISGQKKLSNSFRTYITFHVIQGIVEVTVCKNKFLSVKGSTFQIPAFNEYAIANRGNDEAKMFFVQVTVSEDANDDNDKELDSTFDTFG
modifications: left off: Flag, C-terminal, kept
notes: Mif2 variant that lacks signature motif and AT-hook

Legend:
budding yeast = details: ref Hornung et al, 2014; cited from earlier work
Description: Figure 1 Ame1 and Mif2 are Mtw1c receptors that promote outer kinetochore assembly Left panel: Comparison of kinetochore assembly plans. Generally, inner kinetochores are represented by the […] centromere‐associated network (CCAN) of which Ame1 and Mif2 are the only essential subunits in S. cerevisiae. Right panel: Among other functions, Ame1 and Mif2 both act as receptors for the outer kinetochore component Mtw1c using short binding motifs at their N‐termini. An Ame1ΔN is lethal, while a Mif2ΔN mutant is viable. Two different scenarios for Mtw1c‐receptor configurations are indicated.

Mif2‐FRB strains = experiment: Anchor-away growth assay, Mif2 alleles; assay type: cell-based, budding yeast; details: rapamycin
Mtw1‐GFP kinetochores = experiment: Kinetochore microscopy (Mtw1-GFP, Spc42-mCherry) in Mif2-overexpressing cells; assay type: cell-based, budding yeast; details: large-budded cells, galactose, 100 cells per strain, 2 independent experiments
Protocol: Figure 8 Auto‐inhibition of Mif2 is crucial for chromosome segregation and cell viability • Phenotypic analysis of Mif2 mutants using a galactose‐inducible overexpression system. Strains harboring the indicated Mif2 expression constructs on pESC plasmids were plated in serial dilution on doHIS‐glucose or doHIS‐raffinose/galactose plates and incubated at 30°C. • Serial dilution assay of chromosomally integrated Mif2 variants under the control of the pGAL promoter. Strains were plated on YEP‐glucose and YEP‐raffinose/galactose plates and incubated at 25°C. • Analysis of chromosome segregation in strains from (B). Distribution of fluorescently labeled chromosome III was analyzed in large‐budded cells 16 h after switching the medium to galactose. Scale bar represents 2 μm. • Microscopic analysis of kinetochores in Mif2‐overexpressing cells visualizing Mtw1‐GFP and Spc42‐mCherry. Images of representative large‐budded cells after 16 h in galactose are shown. One kinetochore cluster is enlarged in the white box for each strain. Scale bar represents 5 μm. […] Only large‐budded cells were included in the analysis. • Quantification of (D) in which large‐budded cells were classified according to their Mtw1‐GFP signal into the four indicated groups. A total of 100 cells were quantified for every strain. Mean values of the three indicated groups were calculated and plotted in a bar chart. […]

yeast growth = experiment: Galactose-inducible overexpression growth assay (serial dilution); assay type: cell-based, budding yeast; details: two-micron pESC plasmid, 30°C
Description: What is the consequence of expressing Mif2^Ame1‐N swap in cells? […] To assess this effect in a more systematic manner, we expressed Mif2‐wt, Mif2‐ΔN, or Mif2^Ame1‐N swap under the control of a galactose‐inducible promoter in an otherwise wild‐type background. […] To further analyze the toxic effect of Mif2^Ame1‐N swap in cells, we stably integrated the different Mif2 versions under the control of the GAL10 promoter at the URA3 locus and again analyzed growth on plates. We included an additional strain in which Mif2 swap was mutated so that it cannot bind Mtw1c (R10E mutation in the RxxG motif). […]
Figure 8 Auto‐inhibition of Mif2 is crucial for chromosome segregation and cell viability • Phenotypic analysis of Mif2 mutants using a galactose‐inducible overexpression system. […] Distribution of fluorescently labeled chromosome III was analyzed in large‐budded cells 16 h after switching the medium to galactose. […] Only large‐budded cells were included in the analysis. • Quantification of (D) in which large‐budded cells were classified according to their Mtw1‐GFP signal into the four indicated groups. A total of 100 cells were quantified for every strain. Mean values of the three indicated groups were calculated and plotted in a bar chart. […]

Mtw1‐Nnf1 complex (MN) = experiment: Flag pulldown of MN by Mif2 variants; assay type: binding, budding yeast; details: bait 1 μM, MN 3 μM; Coomassie or Western blot against His-tag on Nnf1
Description: (§1) If intramolecular interactions between the Mif2 N‐terminus and other parts of the molecule limit the ability to bind MN, then removing this auto‐inhibitory domain should increase the affinity for MN. […] We conclude that apart from residues in its N‐terminus, also residues in the signature motif and AT‐hook of Mif2 are responsible for the ability to adopt an auto‐inhibited conformation.
(§2) Figure 6 Mif2 auto‐inhibition depends on its Cse4 and DNA‐binding motifs • Schematic introduction of Mif2wt and Mif2‐ΔsigAT in which its Cse4 and DNA‐binding motifs have been removed. […]
(§3) The GST pulldown experiment was performed using BSA‐preblocked GSH Sepharose beads. […] Beads were washed twice in pulldown buffer, before Laemmli sample buffer was added to the beads (GST pulldown) or proteins were eluted in pulldown buffer supplemented with 1 mg/ml Flag peptide before addition of Laemmli sample buffer (Flag pulldown) and samples were analyzed on a Coomassie Brilliant Blue‐stained SDS–PAGE gel or Western blotting. […] Elution of proteins was monitored at 280 nm. 100 μl fractions were collected and analyzed by SDS–PAGE and Coomassie Brilliant Blue staining or Western blotting. […] After several washes with lysis buffer, proteins were eluted with 0.2 mg/ml 3xFlag peptide in lysis buffer, and fractions were analyzed by Western blotting. […]

MN = experiment: Analytical SEC of Mif2 variants with MN; assay type: binding, budding yeast; details: 10 μM, 1 h at 4°C
Description: as §1, §2, §3

| Molecule | viability / phenotype (budding yeast) | viability (Mif2‐FRB strains; ctf3 or chl4 deletion backgrounds) | rescue of Mif2-FRB lethality (Mif2‐FRB strains; ctf19Δ background) | kinetochore signal localization (Mtw1‐GFP kinetochores) | effect of overexpression on growth (yeast growth) | co-purification of MN (Mtw1‐Nnf1 complex (MN)) | binding to MN by SEC (MN) |
| --- | --- | --- | --- | --- | --- | --- | --- |
| Mif2‐ΔN: Mif2 lacking the N-terminus (Mif2-D1-35) | viable | lethality | not Mif2‐ΔN, was able to rescue the lethality | closely associated with spindle pole bodies | tolerated well and did not greatly impact yeast viability | – | – |
| B1 | – | – | – | – | impairs growth | able to co‐purify a significantly increased amount of MN | increased binding to MN as compared to Mif2‐wt |
